Laboratory results published in ChEMBL document CHEMBL3507680, “University of Dundee, Gates Library screen for HepG2 cell viability”.

Assay: Human HepG2 cell viability assay in 384 well format
Assay type: toxicity, cell-based
Design: dose 125 nL, time 70.5 hour; cytotoxicity at 70.5 h: concentration not given beside the values
Settings: HepG2 cells, read-out: Inhibition

| Compound | cytotoxicity at 70.5 h |
| --- | --- |
| O=C(Nc1ccc2c(c1)C(=O)NC2=O)c1ccc(Cl)s1 | -10.9% |
| CC(C)(C)n1ncc2c(=O)n(CC(=O)NCc3ccco3)cnc21 | -11.6% |
| CC(C)(C)n1ncc2c(=O)n(CC(=O)NCCc3ccccc3)cnc21 | -13.5% |
| O=C(Nc1ccc(Br)cc1F)c1ccc(N2CCCCC2)nn1 | -3.25% |
| Cc1ccc(NC(=O)c2ccc(N3CCCCC3)nn2)c(Cl)c1 | 3.33% |
| O=C(Nc1cc(C(F)(F)F)ccc1Cl)c1ccc(N2CCOCC2)nn1 | -0.689% |
| CSc1ccccc1NC(=O)c1ccc(N2CCOCC2)nn1 | -3.96% |
| CN1C(=O)c2cccc(NC(=O)c3ccc4c(c3)OCCO4)c2C1=O | 21.1% |
| COCCn1/c(=N\C(=O)CN(C)S(C)(=O)=O)sc2cccc(F)c21 | 20.2% |
| COCCn1/c(=N\C(=O)CN(C)S(C)(=O)=O)sc2cc(Cl)ccc21 | 17% |
| COCCn1/c(=N\C(=O)CN(C)S(C)(=O)=O)sc2cc(OC)ccc21 | 17.2% |
| CCSc1nc(N)c(NC(=O)c2ccc(OC)c(OC)c2)c(=O)[nH]1 | 11.2% |
| CCCSc1nc(N)c(NC(=O)c2ccc(OC)c(OC)c2)c(=O)[nH]1 | 12% |
| CC(C)CSc1ccc(-n2cccn2)nn1 | 27.6% |
| COc1ccc(CCNC(=O)NC2CC(=O)N(c3ccccc3)C2)cc1 (configuration not stated) | 49% |
| OC1CN(c2nc3c(C(F)(F)F)cccc3s2)C1 | 12.2% |
| O=c1n(Cc2ccc(C(F)(F)F)cc2)nc2ncccn12 | 24.3% |
| CC(=O)CSc1nc2c(cnn2CCO)c(=O)[nH]1 | 21.3% |
| Cc1cc(NC(=O)C(C)C)n(-c2nc(C)c(C)c(=O)[nH]2)n1 | 56.9% |
| CNC(=O)Cn1c(CO)cnc1SCc1ccccc1Cl | 16.9% |
| NC(=O)Cn1c(CO)cnc1SCc1ccccc1Cl | 18.9% |

| Compound | cytotoxicity at 70.5 h |
| --- | --- |
| CN1C(=O)C(C)(C)COc2ccc(NS(=O)(=O)Cc3ccccc3)cc21 | 5.22% |
| COCC(=O)Nc1ccc2c(c1)CN(C(=O)c1ccco1)CC2 | 23.8% |
| Cc1cc(C(=O)N2CCN(c3nc4c(F)cccc4s3)CC2)no1 | -7.99% |
| Cc1cc(C(=O)N2CCN(c3nc4c(C(C)C)cccc4s3)CC2)no1 | 3.44% |
| Cc1cnc2c(c1NCc1ccc3c(c1)OCO3)c(=O)n(C)c(=O)n2C | 46.5% |
| Cc1cnc2c(c1NCc1ccccn1)c(=O)n(C)c(=O)n2C | -11.2% |
| CCc1cnc2c(c1NCc1ccc(OC)cc1)c(=O)n(C)c(=O)n2C | 3.22% |
| CCCNC(=O)Cn1nc(C)c2cnn(C(C)(C)C)c2c1=O | 19.1% |
| Cc1nn(C)c(C)c1C1CCCN1CC(=O)Nc1cc(C(C)C)no1 (configuration not stated) | -3.36% |
| Cc1cc(NC(=O)CN2CCCC2c2c(C)nn(C)c2C)on1 (configuration not stated) | -2.37% |
| CCc1nc(C2CCCN(C(=O)c3cccnc3O)C2)no1 (configuration not stated) | -0.758% |
| O=C(NCC1CCS(=O)(=O)C1)N1CCN(c2cnccn2)CC1 (configuration not stated) | 3.28% |
| CN1C(=O)CN(C(=O)c2ccc(=O)n(C)c2)c2ccccc21 | 1.56% |
| Cc1csc(N2CCN(C(=O)C(C)n3cncn3)CC2)n1 (configuration not stated) | 0.112% |
| CC(C)C(C(=O)N1CCCN(c2nccs2)CC1)n1cncn1 (configuration not stated) | 1.24% |
| Cc1cnn(CC2CN(Cc3nc(C)c(C)o3)CCO2)c1 (configuration not stated) | 1.07% |
| CCn1ccnc1CN1CCN(C(C)C(=O)N2CCCCCC2)CC1 (configuration not stated) | -1.03% |
| Cc1nc(CN(C)C2CCN(CC3CCOCC3)C2)no1 (configuration not stated) | -2.15% |
| CC(C(=O)N1CCCCCC1)N1CCN(Cc2nccn2C)CC1 (configuration not stated) | -4.84% |
| Cc1nc(CN(C)C2CCN(CC3CCC3)C2)no1 (configuration not stated) | -4.98% |
| O=C(CCn1nc(-c2cccs2)oc1=O)Nc1cccc(F)c1 | -6.28% |

| Compound | cytotoxicity at 70.5 h |
| --- | --- |
| CCOc1ncccc1CNC(=O)NC1CCOc2ccccc21 (configuration not stated) | -4.63% |
| Cc1ccc(-n2nnc(C(=O)NC(C)C)c2C2CC2)cc1 | -4.09% |
| O=C(C1CCCCC1)N1CCN(Cc2nc(-c3ccco3)no2)CC1 | -5.01% |
| CC(C)c1ncncc1C(=O)N1CCN(Cc2cccnc2)CC1 | -6.82% |
| CCn1ccnc1CN1CCN(C(C)C(=O)N2CCCC2)CC1 (configuration not stated) | -3.5% |
| Cc1cnn(CC2CN(Cc3nnc(-c4ccccc4)o3)CCO2)c1 (configuration not stated) | -8.48% |
| COC(=O)CCNC(=O)c1nnn(-c2ccc(C)cc2)c1C1CC1 | 16.4% |
| Cc1nc2cc(C(=O)N3CCCC(n4ccnc4)C3)ccc2n1C (configuration not stated) | -2.44% |
| CC(=O)Nc1nc(CN2CCn3c(nnc3C(C)C)C2)cs1 | -4.17% |
| O=C(c1cc2c(s1)CCOC2)N1CCCC1Cn1cccn1 (configuration not stated) | -8.49% |
| CS(=O)(=O)NC(=O)c1nnn(-c2cccc(F)c2)c1C1CC1 | -7.64% |
| COc1cccc(C(=O)NS(=O)(=O)c2cccc(C#N)c2)c1 | -6.99% |
| Cc1ccccc1C1(C(=O)N2CCCC(n3cncn3)C2)CC1 (configuration not stated) | -10.8% |
| Cc1cnn(CC2CN(Cc3nc(C4CC4)no3)CCO2)c1 (configuration not stated) | -6.98% |
| Cc1cnn(CC2CN(Cc3nnc(C(C)C)o3)CCO2)c1 (configuration not stated) | -6.07% |
| CCc1nnc(CN2CCOC(Cn3cc(C)cn3)C2)o1 (configuration not stated) | -6.6% |
| COc1cc(C2(C(=O)N3CCCC(n4cncn4)C3)CC2)ccc1C (configuration not stated) | -7.1% |
| O=C(c1ccc2c(c1)COC2)N1CCCC(n2cncn2)C1 (configuration not stated) | -4.03% |
| CC(NC(=O)CCCC(=O)c1cccs1)c1nnc2n1CCC2 (configuration not stated) | -9.34% |
| O=C(c1cc(C2CC2)[nH]n1)N1CCN(Cc2ccc3c(c2)OCO3)CC1 | -2.82% |
| O=C(NCCNc1ncccn1)C1CCN(C(=O)c2ccoc2)CC1 | -3.53% |

| Compound | cytotoxicity at 70.5 h |
| --- | --- |
| CCCC(=O)N1CCC(C(=O)NCCNc2ncccn2)CC1 | 0.692% |
| CC(NC(=O)CCc1cccs1)c1nnc2n1CCCCC2 (configuration not stated) | 8.51% |
| Cc1nnc2n1CCN(Cc1csc(-c3ccsc3)n1)C2 | -5.37% |
| Cc1ncc2c(n1)CN(Cc1nc(-c3cccs3)no1)CC2 | 9.81% |
| Cc1nn(C)c(C)c1C1CCCN1Cc1nc(-c2ccccn2)no1 (configuration not stated) | -5.05% |
| O=C(CN1CC(n2cccn2)C1)NCCc1ccc(F)cc1 | -1.33% |
| CN1CCOC(CN(C(=O)CCCn2cccn2)c2nccs2)C1 (configuration not stated) | -1.25% |
| CN1CCOC(CN(C(=O)CCc2ccco2)c2nccs2)C1 (configuration not stated) | 10.3% |
| CC(C)c1noc(CN2CCN(C(=O)c3ccncc3F)CC2)n1 | -9.24% |
| Cc1ccc(CC(=O)N(CC2CN(C)CCO2)c2nccs2)cn1 (configuration not stated) | 11.5% |
| Cc1csc(N2CCN(CC(=O)Nc3cccnc3)CC2C)n1 (configuration not stated) | 2.59% |
| Cc1cc(C)n(CC2CCCN2CCCc2nc3ccccc3o2)n1 (configuration not stated) | -1.67% |
| CC(c1nc(C2CC2)no1)N1CCN(CCCN2CCCC2=O)CC1 (configuration not stated) | 3.52% |
| Cc1nnc(CN(C)C2CCN(Cc3nnc(C4CCC4)o3)C2)n1C (configuration not stated) | 1.37% |
| Cc1nc(CN2CCC(N(C)Cc3nnc(C4CC4)n3C)C2)oc1C (configuration not stated) | 10.4% |
| Cc1ccc(NC2CCN(C(=O)C(C)n3cncn3)CC2)nn1 (configuration not stated) | -0.916% |
| COc1cccc(CNCc2ccnc(N3CCOCC3)c2)c1OC | -4.37% |
| O=C(Nc1nc2c(s1)CNCC2)C1CC1 | 26.7% |
| Brc1cccnc1OC1CCNCC1 | 23.3% |
